Here are results for three compounds from paper PMC10861299, “A Systematic Survey of Reversibly Covalent Dipeptidyl Inhibitors of the SARS-CoV-2 Main Protease” (Journal of Medicinal Chemistry, 2023).

Where two headings read alike, the source gives them in different places. Some results are limits rather than exact numbers.

Data set [1] in a line: In vitro metabolic stability in human liver microsomes. The following applies: pH 7.4. In general terms: Microsomes from liver hold many membrane-bound enzymes, among them those of drug oxidation.
Data set [2] has as its target M^Pro-eGFP fusion protein in 293T cells (Severe acute respiratory syndrome coronavirus 2, UniProt P0DTD1). In words: cell-based. Also on record: species or system SARS-CoV-2.
In data set [3] the target is SARS-CoV-2 main protease (M^Pro) (Severe acute respiratory syndrome coronavirus 2, UniProt P0DTD1). In words: In vitro M^Pro enzymatic inhibition with fluorogenic substrate Sub3. Type of data set: biochemical. To be noted: 20 nM M^Pro, 10 μM Sub3, 30 min preincubation; read-out: Enzymatic IC50.
The nature of another data set: Cytotoxicity, MTT assay. Type of data set: cell-based. The following applies: human, HEK293T cells, 293T cells. The procedure:
Because of their high antiviral potency, MPI60 and MPI61 were advanced to characterizations of cytotoxicity and in vitro metabolic stability. For the cytotoxicity characterization, we used 293T cells and the MTT assay.[42] […] These CC50 values are similar to that of nirmatrelvir and lead to high calculated selectivity indices (CC50/antiviral EC50) for both compounds. The in vitro metabolic stability analysis for MPI60 and MPI61 was conducted using human liver microsomes.
HEK293T cells were seeded in 96-well plates and incubated at 37 °C and 5% CO2 for 24 h. The cells were then treated with different concentrations (200, 100, 50, 25, 12.5, 6.25, 3.125, 1.5625, 0.78125, and 0 μM) of the tested compound in triplicate for 48 h. Cell viability was assessed by the MTT assay to determine CC50. For the MTT assay, 20 μL MTT (5 mg/mL) was added to each well and incubated with cells for 4 h. After that, the supernatant was removed, and 200 μL DMSO was added per well. The absorbance was recorded at 490 nm. The CC50 value was determined by plotting the normalized cell viability (%) against the compound concentration.
Figure S5. Cytotoxicity curves of MPI60 and MPI61 in 293T cells tested by the MTT assay.
(1 picture or pasted object on this page, not shown here)
A general note: Tetrazolium dyes change colour on reduction, which living cells bring about.

The test system of another data set is COVID-19 patients. Also on record: method as in PMID 34914868. To be noted: patients with mild and moderate COVID-19; cited from earlier work.

One may read the CLint scaled as a measure of how fast metabolising enzymes remove a compound, apart from limits set by blood flow. As usually defined, the half-life is how long it takes for the measured level to halve. For orientation: EC50 means the midpoint of the concentration-response curve. Usually IC50 stands for the concentration that inhibits the measured activity by half. In general, CC50 refers to the concentration that lowers cell viability or growth by half. The low end stands for greater toxicity to the cells, the high end for lower toxicity to the cells. As to `O=C[C@H](C[C@@H]1CCNC1=O)NC(=O)C1CC2(CCCC2)CN1C(=O)OCc1ccccc1` (stereo partly drawn) [MPI60, Benzyl 3-(((S)-1-Oxo-3-((S)-2-oxopyrrolidin-3-yl)propan-2-yl)carbamoyl)-2-azaspiro[4.4]nonane-2-carboxylate], in data set [1], the CLint scaled at 5 μM was 16 mL/min/kg and the half-life at 5 μM stood at 109 min. Besides, the concentration giving a half-maximal response (EC50) in data set [2] (read-out: Cellular EC50) amounted to 88 nM. Also, the EC50 in data set [2] (read-out: cellular EC50) is less than 100 nM. Besides, in data set [3], the concentration for half-maximal inhibition (IC50) turned out to be 22 nM. The same compound returned a half-maximal cytotoxic concentration (CC50) at 48 h in “Cytotoxicity, MTT assay” of 95 µM.

`O=C[C@H](C[C@@H]1CCNC1=O)NC(=O)C1CC2(CCCCC2)CN1C(=O)OCc1ccccc1` (stereo partly drawn) [MPI61, Benzyl 3-(((S)-1-Oxo-3-((S)-2-oxopyrrolidin-3-yl)propan-2-yl)carbamoyl)-2-azaspiro[4.5]decane-2-carboxylate] registered an intrinsic metabolic clearance (CLint scaled) at 5 μM in data set [1] of 45 mL/min/kg. Further, the half-life at 5 μM in data set [1] came out at 38 min. Further, the EC50 in data set [2] (read-out: Cellular EC50) is 85 nM; in data set [2] (read-out: cellular EC50) it was less than 100 nM. Moreover, the IC50 in data set [3] came to 49 nM. In “Cytotoxicity, MTT assay”, the CC50 at 48 h worked out at 230 µM.

Turning to `CC(C)C(=O)OC[C@H]1O[C@@H](n2ccc(NO)nc2=O)[C@H](O)[C@@H]1O` [molnupiravir], the “reduced the risk of hospitalization and death compared to placebo” value in the data set on COVID-19 patients was 50%.
